According to ChEMBL document CHEMBL3593216, “Discovery of antitubercular 2,4-diphenyl-1H-imidazoles from chemical library repositioning and rational design” (2015):
Converted amounts (≈) assume the structure as drawn.

How the values were obtained:
[1] = system: Mycobacterium tuberculosis; experiment: Antitubercular activity against Mycobacterium tuberculosis H37Rv ATCC 27294 incubated up to 7 days measured on day 7 by microplate Alamar Blue assay; assay type: functional; details: H37Rv ATCC 27294, 168 h
[2] = system: Mycobacterium tuberculosis; experiment: Antitubercular activity against recombinant Mycobacterium tuberculosis H37Rv expressing Vibrio harveyii luciferase gene with acetamidase promoter assessed as prevention of metabolic recovery incubated for 10 days in anaerobic environment followed by 28 hrs recovery in aerobic environment by low-oxygen recovery assay; assay type: functional

Row | Structure (SMILES) | MIC90 [1] [µM] | MIC90 [2] [µM]
1 | COc1ccc(-c2csc(Nc3ccc(C)cc3)n2)cc1 | 15.6 (≈ 4.62 µg/mL) | 
2 | Cc1ccc(-c2nc(-c3ccccc3)c[nH]2)cc1 | 124 (≈ 29.1 µg/mL) | 
3 | COc1cccc(-c2c[nH]c(-c3ccccc3)n2)c1 | 88.4 (≈ 22.1 µg/mL) | 
4 | FC(F)(F)c1cccc(-c2c[nH]c(-c3ccccc3)n2)c1 | 37 (≈ 10.7 µg/mL) | 
5 | COc1ccc(-c2csc(Nc3cc(Cl)cc(Cl)c3)n2)cc1 | 13 (≈ 4.57 µg/mL) | 
6 | c1ccc(-c2c[nH]c(-c3ccncc3)n2)cc1 | > 128 | 
7 | c1ccc(-c2c[nH]c(-c3ccccc3)n2)cc1 | 128 (≈ 28.1 µg/mL) | 
8 | COc1ccccc1-c1nc(-c2ccccc2)c[nH]1 | > 128 | 
9 | Oc1ccc(-c2nc(-c3ccccc3)c[nH]2)cc1 | > 128 | 
10 | FC(F)(F)Oc1cccc(-c2nc(-c3ccccc3)c[nH]2)c1 | 35.5 (≈ 10.8 µg/mL) | 
11 | COc1cccc(-c2nc(-c3ccccc3)c[nH]2)c1OC | 55.2 (≈ 15.5 µg/mL) | 
12 | Fc1cc(-c2nc(-c3cccc(C(F)(F)F)c3)c[nH]2)cc(C(F)(F)F)c1 | 6 (≈ 2.25 µg/mL) | 17.6
13 | COc1cc(-c2nc(-c3cccc(C(F)(F)F)c3)c[nH]2)cc(C(F)(F)F)c1 | 7.3 (≈ 2.82 µg/mL) | 63.7
14 | FC(F)(F)c1cccc(-c2c[nH]c(-c3cc(C(F)(F)F)cc(C(F)(F)F)c3)n2)c1 | 7.7 (≈ 3.27 µg/mL) | 11.3
15 | Cc1[nH]c(-c2cccc(C(F)(F)F)c2)nc1-c1cccc(C(F)(F)F)c1 | 14 (≈ 5.18 µg/mL) | 
16 | Cn1cc(-c2cccc(C(F)(F)F)c2)nc1-c1cccc(C(F)(F)F)c1 | 7.9 (≈ 2.93 µg/mL) | 50.7
17 | Clc1cccc(-c2c[nH]c(-c3ccccc3)n2)c1 | 60.3 (≈ 15.4 µg/mL) | 

Row | Structure (SMILES) | MIC90 [1] [µM] | MIC90 [2] [µM]
18 | Clc1ccc(-c2c[nH]c(-c3ccccc3)n2)cc1 | 59.5 (≈ 15.2 µg/mL) | 
19 | COc1ccc(-c2nc(-c3ccccc3)c[nH]2)cc1 | 119 (≈ 29.9 µg/mL) | 
20 | COc1cccc(-c2nc(-c3ccccc3)c[nH]2)c1 | 73.7 (≈ 18.4 µg/mL) | 
21 | FC(F)(F)c1cccc(-c2nc(-c3ccccc3)c[nH]2)c1 | 30.6 (≈ 8.82 µg/mL) | 
22 | O=[N+]([O-])c1ccc(-c2c[nH]c(-c3ccccc3)n2)cc1 | > 128 | 
23 | O=[N+]([O-])c1cccc(-c2nc(-c3ccccc3)c[nH]2)c1 | 60.6 (≈ 16.1 µg/mL) | 
24 | COc1ccc(-c2c[nH]c(-c3ccccc3)n2)cc1 | 82.4 (≈ 20.6 µg/mL) | 
25 | FC(F)(F)c1ccc(-c2c[nH]c(-c3ccccc3)n2)cc1 | > 128 | 
26 | FC(F)(F)c1cccc(-c2c[nH]c(-c3ccc(Cl)cc3)n2)c1 | 29.8 (≈ 9.62 µg/mL) | 
27 | Clc1cccc(-c2nc(-c3ccccc3)c[nH]2)c1 | 60.4 (≈ 15.4 µg/mL) | 
28 | Clc1ccc(-c2nc(-c3ccccc3)c[nH]2)cc1 | 59.8 (≈ 15.2 µg/mL) | 
29 | c1ccc(-c2c[nH]c(-c3ccsc3)n2)cc1 | 107 (≈ 24.3 µg/mL) | 
30 | FC(F)(F)c1ccc(-c2nc(-c3ccccc3)c[nH]2)cc1 | 48.9 (≈ 14.1 µg/mL) | 
31 | FC(F)(F)c1cccc(-c2c[nH]c(-c3cccc(C(F)(F)F)c3)n2)c1 | 1.7 (≈ 0.606 µg/mL) | 25.4
32 | c1ccc(-c2c[nH]c(C3CCCCC3)n2)cc1 | 125 (≈ 28.2 µg/mL) | 
33 | NNC(=O)c1ccncc1 [ISONIAZID] | 0.1 (≈ 0.0137 µg/mL) | 
34 | CO[C@H]1/C=C/O[C@@]2(C)Oc3c(C)c(O)c4c(O)c(c(/C=N/N5CCN(C)CC5)c(O)c4c3C2=O)NC(=O)/C(C)=C\C=C\[C@H](C)[C@H](O)[C@@H](C)[C@@H](O)[C@@H](C)[C@H](OC(C)=O)[C@@H]1C [RIFAMPIN] | 0.05 (≈ 0.0411 µg/mL) | 
